According to ChEMBL document CHEMBL1141547, “Investigations of the esterase, phosphatase, and sulfatase activities of the cytosolic mammalian carbonic anhydrase isoforms I, II, and XIII with 4-nitrophenyl esters as substrates” (Bioorg Med Chem Lett, 2008):

Experiments:
Carbonic anhydrase 13 [1] = molecular target: T1, Carbonic anhydrase 13 (Mus musculus, UniProt Q9D6N1); assay: Inhibition of mouse carbonic anhydrase 13 assessed as 4-nitrophenyl phosphate hydrolysis
Carbonic anhydrase 13 [2] = molecular target: T1, Carbonic anhydrase 13; assay: Inhibition of mouse carbonic anhydrase 13 assessed as 4-nitrophenyl acetate hydrolysis

T1 sequence (Q9D6N1 whole entry): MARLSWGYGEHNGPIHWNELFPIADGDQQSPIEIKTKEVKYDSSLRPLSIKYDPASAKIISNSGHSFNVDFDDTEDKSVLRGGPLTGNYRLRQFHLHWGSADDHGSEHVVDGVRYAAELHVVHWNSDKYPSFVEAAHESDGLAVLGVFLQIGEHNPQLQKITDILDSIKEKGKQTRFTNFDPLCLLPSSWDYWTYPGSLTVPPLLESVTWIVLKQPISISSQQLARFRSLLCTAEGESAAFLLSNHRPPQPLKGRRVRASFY

IC50 (Carbonic anhydrase 13 [1]): 1050 nM
IC50 (Carbonic anhydrase 13 [2]): 490 nM
Compound: CC(=O)Nc1nnc(S(N)(=O)=O)s1 [ACETAZOLAMIDE]
